This is an account of results in paper PMC8245078, “Development of novel benzofuran-isatin conjugates as potential antiproliferative agents with apoptosis inducing mechanism in Colon cancer” (Journal of Enzyme Inhibition and Medicinal Chemistry, 2021).

For series [1], the system named is cleaved PARP in SW-620 cells. The series can be described thus: Western blot analysis of cleaved PARP. The format is cell-based, human. As to conditions: SW-620, 5 μM and 10 μM, 24 h. The source says: (§1) To further examine the possible mechanism of apoptosis, the effect of compounds 5a and 5d on certain apoptosis-related proteins was studied. Bcl2 protein as a critical component of the mitochondrial apoptotic pathway is reported to be overexpressed in numerous tumours causing survival of cancer cell[62]. In addition, it was reported that caspase activation during apoptosis leads to proteolytic cleavage of several cellular substrates participating in DNA reparation including [poly (ADP-ribose) polymerase][63]. Therefore, the impact of compounds 5a and 5d on the anti-apoptotic protein Bcl2 and the level of cleaved PARP was examined (Figure 7). […]
(§2) 2.5. Western Blot Analysis
(§3) All cells were seeded in a 100 mm dish (1 × 10^6 cells per dish) in 5% CO2 at 37 °C in the appropriate culture medium. The cells with around 50% confluency were treated with compounds for 24h. At the experiment day, cells were washed with 1x PBS, harvested and lysed in RIPA lysis buffer, combined with protease inhibitors, (Sigma-Aldrich, St. Louis, MO, USA) as described previously (39)). The total protein concentration was evaluated by the colorimetric Bradford protein assay (BIO-RAD inc, CA, USA) at 595 nm absorbance. Lysates were loaded in […]
(§4) equal concentration and separated by sodium dodecyl sulfate-polyacrylamide gel electrophoresis (SDS-PAGE) and then transferred to a nitrocellulose membrane by semi-dry. […]
(A western blot detects proteins with antibodies after separation by electrophoresis.)

In series [2] the test system is human skin fibroblast (HFF-1) normal cells. The series is described as follows: MTT cell viability assay on normal cells. Format: cell-based. The conditions noted are these: HFF-1, incubation for 24 h. How it is done:
Furthermore, selective cytotoxicity of compounds 5a and 5d was studied on human skin fibroblast (HFF-1) normal cells. […]
each well, and plates were incubated for 10 minutes at room temperature. After staining, unbound dye was removed by washing five times with 1 % acetic acid and the plates were air dried. Bound stain was subsequently solubilized with 10 mM trizma base, and the absorbance was read on an automated plate reader at a wavelength of 515 nm. For suspension cells, the methodology was the same except that the assay was terminated by fixing settled cells at the bottom of the wells by gently adding 50 μL of 80 % TCA (final concentration, 16 % TCA).
Using the seven absorbance measurements [time zero, (Tz), control growth, (C), and test growth in the presence of drug at the five concentration levels (Ti)], the percentage growth was calculated at each of the drug concentrations levels. Percentage growth inhibition was calculated […]
Three dose response parameters were calculated for each experimental agent. […] The drug concentration resulting in total growth inhibition (TGI) was calculated from Ti = Tz. […]
The cytotoxicity effect of compounds on the colorectal cancer cell lines, SW620 and HT29 in addition to the normal human fibroblasts was measured by MTT (3-(4, 5-dimethylthiazol-2-yl)-2,5-diphenyltetrazolium bromide) (Sigma-Aldrich, St. Louis, MO, USA) as previously described. […]
(In general: Tetrazolium dyes change colour on reduction, which living cells bring about.)

Series [3] concerns anti-apoptotic Bcl2 protein in SW-620 cells. The series is described as follows: Western blot analysis of Bcl2. As to conditions: SW-620, 5 μM and 10 μM, 24 h. The format is cell-based, human.
Excerpt: as §1, §2, §3, §4

Series [4] has as its system SK-MEL-5. The format is cell-based. As to conditions: Homo sapiens; SK-MEL-5, five-dose test.
Series [5] concerns NCI-H226. The format is cell-based. As to conditions: Homo sapiens, NCI-H226, five-dose test.
The test system of series [6] is SK-MEL-2. The format is cell-based. The conditions noted are these: SK-MEL-2, five-dose test.

Where only a bound is given, the exact number is not on record here.

In the case of `Cc1c(C(=O)N/N=C2\C(=O)Nc3ccccc32)oc2ccccc12` [Compound 5a], the “level of cleaved PARP (Western blot, in words)” value in series [1] was “significant increase”. Also, in series [2], the “effect on fibroblast normal cell viability” value is listed as “little effect”. Also, in series [3], the “Bcl2 protein expression (Western blot, in words)” value is reported as “dose dependent inhibition”.
`COc1ccc2c(c1)/C(=N/NC(=O)c1oc3ccccc3c1C)C(=O)N2` [Compound 5d] had an LC50 (50% lethal concentration) in series [4] greater than 100 µM. For the same compound, the “level of cleaved PARP (Western blot, in words)” value in series [1] was “significant increase”. In series [5], this compound yielded a GI50 of 2.19 µM. Further, the CC50 in series [5] (read-out: LC50 (the source's name)) was greater than 100 µM. The “effect on fibroblast normal cell viability” value in series [2] is “little effect”. The “Bcl2 protein expression (Western blot, in words)” value in series [3] was “significant inhibition”. In series [6] (Homo sapiens), this compound displayed a concentration for 50% growth inhibition (GI50) of 2.56 µM and an LC50 of 54.7 µM. Further, the TGI in series [6] is given as 6.62 µM.

As usually defined, the GI50 is the concentration at which growth is held to half of that of the control. By LC50 is commonly meant the concentration that kills 50% of the test population. Lower therefore signals greater toxicity. Usually TGI stands for the concentration at which net growth stops. Low values mean greater sensitivity of the cells, high ones lower sensitivity of the cells.
